# In patent US8088819B2, “Derivatives of substituted 3-phenyl-1-(phenylthienyl)propan-1-ones and of 3-phenyl-1-(phenylfuranyl) propan-1-ones, preparation and use” (priority 2006, dated 2012):
# How the values were obtained:
# [1] = molecular target: T1, hPPARgamma (Homo sapiens, UniProt P37231); assay: PPAR activation: Gal4-hPPARγ chimera luciferase transactivation in COS-7 cells, Method 1; type: cell-based; conditions: COS-7, 24 h; for Emax: maximum percentage response relative to the reference rosiglitazone, read-out: hPPARgamma % max
# T1 construct: expressed in transfected cells; host or cells: COS-7 (monkey kidney fibroblasts)
# T1 sequence (P37231 238-503 limits assumed): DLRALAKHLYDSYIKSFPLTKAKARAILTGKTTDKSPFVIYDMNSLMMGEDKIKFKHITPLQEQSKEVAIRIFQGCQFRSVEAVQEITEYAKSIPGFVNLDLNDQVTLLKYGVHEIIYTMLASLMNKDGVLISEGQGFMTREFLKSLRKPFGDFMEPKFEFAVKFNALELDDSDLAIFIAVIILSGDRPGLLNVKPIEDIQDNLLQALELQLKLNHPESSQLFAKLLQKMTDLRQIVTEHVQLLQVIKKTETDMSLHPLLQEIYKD
# Outline: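 COS-7 cells transiently transfected with Gal4 DBD–human PPAR LBD (DEF domain) chimeras plus Gal4(RE)_TkpGL3 luciferase reporter (1/10 ratio). Compounds applied 24 h at 37 °C in serum-free medium at doses between 10^−5 and […]; luciferase read after lysis, EC50 derived.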
# [2] = system: murine myocytes (C2C12); assay: β-oxidation of fatty acids in murine myocytes (tritiated palmitate); type: cell-based; conditions: 24 h pretreatment
# Text: The more the induction of the β-oxidation of fatty acids is increased, the greater the stimulating action of the compound according to the invention on metabolism in the muscle cells.
# The objective is to measure the amount of tritiated water formed during the mitochondrial oxidation of ^3H-labeled fatty acids.
# The C2C12 murine cell line (obtained from ECACC) is cultivated in DMEM medium (Gibco; 41965-039) with addition of 1% L-glutamine (Gibco; 25030), 1% penicillin/streptomycin (VWR; BWSTL0022/100) and 10% decomplemented fetal calf serum (FCS. Gibco; 10270-106).
# The cells are seeded on 48-well plates at a density of 25·10^3 cells/well. At confluence, the medium is replaced with a differentiating medium (basal medium with addition of 2% of horse serum (Gibco; 26050-088)), then incubated at 37° C. and 5% CO2 for 4 days in order to differentiate them to myocytes.
# After 4 days of differentiation, the cells are treated with the compounds according to the invention added to the culture medium for differentiation. Compound 2 was tested by dose effect from 0.01 to 1 μM, and the others were tested at a dose of 1 μM. The compounds according to the invention are dissolved in dimethylsulfoxide (DMSO, Sigma; D5879). The cells are treated for 24 h at 37° C., 5% CO2. The effect of the compounds according to the invention is compared with the effect of DMSO alone. […]
# Secondly, 50 μL of precipitated supernatant is evaporated for 2 days, then the residual tritium is measured in order to evaluate the amount of tritiated palmitate not converted to water.
# A standard range is prepared by successive dilutions of the tritiated palmitate/BSA complex in order to determine the amount of palmitate converted to water. For each time of the kinetics, 1 h, 2 h and 3 h, the amount in nanomoles of oxidized palmitate is calculated by linear regression. The areas under the curve are determined for each set of conditions and the results are normalized with DMSO. […]
SMILES,melting point,EC50 [1],Emax [1],β-oxidation of fatty acids in murine myocytes ([2]; in dose effect starting from 0.01 μM),β-oxidation of fatty acids in murine myocytes ([2]; at 1 μm)
"CC(C)(Oc1ccc(CCC(OCc2ccccc2)c2ccc(-c3ccc(C(F)(F)F)cc3)s2)c(Cl)c1Cl)C(=O)O (stereo not drawn) [Compound 7, 2-(4-(3-(benzyloxy)-3-(5-(4-(trifluoromethyl)phenyl)thien-2-yl)propyl)-2,3-dichlorophenoxy)-2-methylpropanoic acid]",46 to 48 °C,,,,
"CC(C)(Oc1ccc(CCC(=O)c2ccc(-c3ccc(C(F)(F)F)cc3)s2)c(Cl)c1Cl)C(=O)O [Compound 2, 2-(2,3-dichloro-4-(3-oxo-3-(5-(4-(trifluoromethyl)phenyl)thien-2-yl)propyl)phenoxy)-2-methylpropanoic acid]",153 to 154 °C,60 nM,11%,significant increase,
"CC(C)(Oc1ccc(CCC(=O)c2cc(-c3ccc(C(F)(F)F)cc3)cs2)c(Cl)c1Cl)C(=O)O [Compound 11, 2-(2,3-dichloro-4-(3-oxo-3-(4-(4-(trifluoromethyl)phenyl)thien-2-yl)propyl)phenoxy)-2-methylpropanoic acid]",99 to 101 °C,1170 nM,55%,,significant increase
"CC(C)(Oc1ccc(CCC(O)c2ccc(-c3ccc(C(F)(F)F)cc3)s2)c(Cl)c1Cl)C(=O)O (stereo not drawn) [Compound 4, 2-(2,3-dichloro-4-(3-hydroxy-3-(5-(4-(trifluoromethyl)phenyl)thien-2-yl)propyl)phenoxy)-2-methylpropanoic acid]",54 to 56 °C,,38%,,significant increase
